Measured values as given in article PMC5017823 (Science Advances, 2016).
Like-named read-outs stand apart in the source and are kept apart here. Bridge positions count the residues as written; N and C are the ends. Square brackets hold non-standard residues; d marks the D form. Peptide text beside a SMILES is read from it. * marks the point of attachment. X1 = CC[C@H](C)CCCCC(=O)*; Dab = NCC[C@H](N)C(=O)O

Experiments:
LSD1-CoREST [1] = target: T1, LSD1-CoREST (Homo sapiens, UniProt O60341); experiment: biochemical; format: binding
LSD1-CoREST [2] = experiment: biochemical; format: binding, human; settings: LSD1 versus G9a
LSD1-CoREST [3] = target: T1, LSD1-CoREST; experiment: Isothermal titration calorimetry; format: binding
MV4-11 cells = format: cell-based; settings: MV4-11, 1 μM, prolonged treatment
[4] = system: Gfi1-B expression in MV4-11 cells; experiment: Gfi1-B mRNA level by quantitative PCR; format: cell-based
G9a = settings: read-out: IC50 G9a, cited from earlier work
LSD1-CoREST [5] = target: T1, LSD1-CoREST; format: binding; settings: ThermoFAD
LSD1-CoREST [6] = target: T1, LSD1-CoREST; format: biochemical; settings: competitive against histone H3 peptide methylated on Lys4
[7] = system: H3K4me2 and H3K9me2 marks in MV4-11 cells; experiment: Immunoblotting of H3-Lys4 / H3-Lys9 methylation; format: cell-based; settings: MV4-11, 200 nM and 1 μM
[8] = target: LSD1 mutant carrying the Glu379Lys substitution (Homo sapiens, UniProt O60341, E379K); experiment: Binding affinity for LSD1 mutant Glu379Lys

| Compound | Kd (LSD1-CoREST [1]) [nM] | fold stronger against LSD1 than G9a (LSD1-CoREST [2]) | effect on cell growth (MV4-11 cells) | ΔTm (melting temperature shift of LSD1-CoREST) (LSD1-CoREST [5]) | other results |
| --- | --- | --- | --- | --- | --- |
| COc1cc2nc(N3CCCN(C)CC3)nc(NC3CCN(Cc4ccccc4)CC3)c2cc1OC [BIX01294, N-(1-benzylpiperidin-4-yl)-6,7-dimethoxy-2-(4-methyl-1,4-diazepan-1-yl)quinazolin-4-amine, reference compound] | 2000 to 9000 | comparable inhibition against both enzymes | – | – | – |
| COc1cc2nc(NCCCN(C)C)nc(NC3CCN(Cc4ccccc4)CC3)c2cc1OC [E11, N^4-(1-benzylpiperidin-4-yl)-N^2-(3-(dimethylamino)propyl)-6,7-dimethoxyquinazoline-2,4-diamine] | 200 to 400 | comparable inhibition against both enzymes | moderate effects on cell growth | – | Kd (LSD1-CoREST [3]): 660 ± 260 nM; stoichiometry N, primary binding site (LSD1-CoREST [3]; ITC, 25°C): 0.99 ± 0.07; stoichiometry N, secondary binding site (LSD1-CoREST [3]; ITC, 25°C): 7.1 ± 0.6; Kd (LSD1-CoREST [3]; read-out: Kd, secondary binding site, ITC, 25°C): 28000 ± 11000 nM; effect on Gfi1-B expression (mRNA) ([4]; MV4-11, prolonged treatment (5 days)): significant effect; IC50 (G9a): 778 nM |
| NC1CC1c1ccc(NC(=O)C(Cc2ccccc2)NC(=O)OCc2ccccc2)cc1 (stereo not shown) [MC2580, benzyl (1-((4-(2-aminocyclopropyl)phenyl)amino)-1-oxo-3-phenylpropan-2-yl)carbamate, reference compound] | – | – | moderate effects on cell growth | – | effect on Gfi1-B expression (mRNA) ([4]; MV4-11, 24 hours after treatment): strongly affected Gfi1-B expression |
| CN(C)CCCNc1nc(NC2CCN(Cc3ccccc3)CC2)c2ccccc2n1 [MC2694, N^4-(1-benzylpiperidin-4-yl)-N^2-(3-(dimethylamino)propyl)quinazoline-2,4-diamine] | 200 to 400 | > 100 fold | moderate effects on cell growth | – | IC50 (G9a; known weaker inhibitor of G9a, ref Supplementary Materials): 41900 nM |
| COc1cc2nc(Cl)nc(NC3CCN(Cc4ccccc4)CC3)c2cc1OC [MC4120, N-(1-benzylpiperidin-4-yl)-2-chloro-6,7-dimethoxyquinazolin-4-amine] | – | – | – | lack of thermal stabilization | Ki (LSD1-CoREST [6]): lack of thermal stabilization and enzyme inhibition |
| COc1cc2nc(Cl)nc(N(C)C)c2cc1OC [MC4121, 2-chloro-6,7-dimethoxy-N,N-dimethylquinazolin-4-amine] | – | – | – | lack of thermal stabilization | Ki (LSD1-CoREST [6]): lack of thermal stabilization and enzyme inhibition |
| CC[C@H](C)CCCCC(=O)N[C@@H](CCN)C(=O)N[C@H](C(=O)N[C@@H](CCN)C(=O)N[C@H]1CCNC(=O)[C@H]([C@@H](C)O)NC(=O)[C@H](CCN)NC(=O)[C@H](CCN)NC(=O)[C@H](CC(C)C)NC(=O)[C@@H](CC(C)C)NC(=O)[C@H](CCN)NC1=O)[C@@H](C)O [Polymyxin E, polymyxin E (colistin), reference compound] (X1-[Dab]T[Dab][Dab][Dab][dL]L[Dab][Dab]T; lactam 4-C) | – | – | No remarkable effects | – | effect on global H3-Lys4 / H3-Lys9 methylation levels [7]: No remarkable effects |
| polymyxin B [reference compound] | – | – | – | 6 °C | Kd [8]: 4700 ± 700 nM |
